By IC50 is commonly meant the point on the concentration scale where inhibition reaches its midpoint. By melting point is commonly meant the temperature of the solid-liquid transition.

The first data set relates to LTB4 production in human whole blood (LTA4 hydrolase). Description: LTB4 production by calcium ionophore stimulated human blood. It counts as cell-based. Conditions: Homo sapiens, human whole blood, A23187; read-out: Inhibition of Calcium Ionophore-Induced LTB4 Production in Human Blood IC50 HWB. The protocol:
LTB4 and Thromboxane Production by Calcium Ionophore Stimulated Human Blood for LTA4 Hydrolase Inhibitor Activity
One or more concentrations of the leukotriene A4 hydrolase inhibitor compounds being tested were prepared (diluted in DMSO) and 2 μl added and gently mixed with the diluted whole blood. After incubating for 15 minutes at 37° C. in a humidified incubator, calcium ionophore A23187 (Sigma Chemical Co., St. Louis, Mo.) was added to a final concentration of 20 mcg/ml and the incubation continued under the same conditions for an additional 10 minutes to allow LTB4 formation. The reaction was terminated by centrifugation (833 g, 10 minutes at 4° C.) and supernatant were analyzed for LTB4 and thromboxane by commercially available enzyme-linked immunoassays (Caymen Chemical Co., Ann Arbor, Mich.) according to the manufacturer's instructions. The IC50 of each test compound was determined from the amount of inhibition of LTB4 production as compared to an essentially identical assay in which no inhibitor compound was present.
For the molecule `O=C(O)CCNCCCOc1ccc(Cc2ccccc2)cc1` [Example 431], the IC50 came out at 280 nM.

As for `NC(=O)NC1CCN(CCOc2ccc(Cc3ccccc3)cc2)C1` (stereo not drawn) [Example 453], the IC50 is 350 nM.

A further data set has as its target T1, recombinant human LTA4 hydrolase (rhLTA4H) (Homo sapiens, UniProt P09960).
T1 sequence (P09960 1-611): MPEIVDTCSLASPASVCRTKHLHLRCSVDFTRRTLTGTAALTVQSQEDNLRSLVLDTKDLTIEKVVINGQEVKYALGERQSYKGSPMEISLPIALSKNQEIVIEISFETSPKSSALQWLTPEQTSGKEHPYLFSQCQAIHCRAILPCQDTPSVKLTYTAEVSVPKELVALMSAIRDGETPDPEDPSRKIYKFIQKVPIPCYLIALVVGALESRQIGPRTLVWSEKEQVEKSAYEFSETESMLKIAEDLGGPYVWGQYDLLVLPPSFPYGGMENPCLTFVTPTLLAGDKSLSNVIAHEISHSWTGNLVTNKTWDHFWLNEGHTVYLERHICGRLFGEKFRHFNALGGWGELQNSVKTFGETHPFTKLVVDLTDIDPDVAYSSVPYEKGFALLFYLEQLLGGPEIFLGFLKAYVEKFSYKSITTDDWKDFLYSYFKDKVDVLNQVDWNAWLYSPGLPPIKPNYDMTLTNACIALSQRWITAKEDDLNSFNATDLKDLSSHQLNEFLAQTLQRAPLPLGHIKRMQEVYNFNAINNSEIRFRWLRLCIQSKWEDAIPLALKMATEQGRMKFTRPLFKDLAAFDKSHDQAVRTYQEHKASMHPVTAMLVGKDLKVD
Description: Recombinant human LTA4 hydrolase assay for LTA4 hydrolase inhibitor activity. Conditions: Recombinant Human LTA4 Hydrolase Assay IC50 LTA4H, recombinant hLTA4H.
Description: One or more predetermined amounts of a compound of the invention were incubated in assay buffer (0.1 M potassium phosphate, 5 mg/ml fatty acid free BSA, 10% DMSO, pH 7.4) for 10 minutes at room temperature with 250 ng of recombinant hLTA4H to allow binding, if any, between the enzyme and inhibitor. The stock enzyme solution was 1 mg/ml LTA4 hydrolase, 50 mM Tris, pH 8.0, 150 mM NaCl, 2.5 mM beta-mercaptoethanol, 50% glycerol. […] Each reaction was carried out at room temperature for 10 minutes. The reaction was stopped by diluting 25 μl of the reaction mixture with 500 μl of the assay buffer without DMSO. LTB4 was quantified in the diluted sample by a commercially available enzyme-linked immunoassay [Caymen Chemical Co., Ann Arbor, Mich.] using the method recommended in the manufacturer's instructions and compared to the amount of LTB4 produced in a negative control (i.e., essentially identical conditions except without addition of an inhibitor compound). The IC50 was routinely calculated from the data produced.
In the case of `O=C(O)[C@@H]1CCCN1CCCOc1ccc(Cc2ccccc2)cc1` [Example 430], the IC50 turned out to be 110 nM.

With `C1=CC2CC1CN2CCOc1ccc(Cc2ccccc2)cc1` (stereo not drawn) [Example 497], the IC50 came to 200 nM.

The test system of the next data set is LTB4 production in mouse blood (LTA4 hydrolase). Description: Ex vivo LTB4 production by calcium ionophore stimulated mouse blood after oral dosing. It counts as in vivo. Conditions: Mus musculus, po, 1 h, read-out: Murine Ex Vivo LTB4 Inhibition % I LTB4. Put shortly:
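Male outbred mice dosed by oral gavage, 10 mg/kg (some at 50 mg/kg) in PBS with 2% DMSO and 1% Tween 80; heparinised blood taken at 60 min, calcium ionophore-stimulated 10 minutes at 37° C. LTB4 and thromboxane by ELISA; % inhibition against vehicle-dosed animals.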
Regarding `CN(CCCOc1ccc(Cc2ccccc2)cc1)CCC(=O)O` [Example 434], the inhibition in vivo at 10 mg/kg came out at 100%.

Still in this data set, the particulars now being: mouse, oral gavage, 1 hour after administration of 10 mg/kg; read-out: Murine Ex Vivo LTB4 Inhibition % I LTB4.
Regarding `O=C(O)[C@@H]1CCCN1CCCOc1ccc(Cc2ccccc2)cc1` [Example 430], the inhibition in vivo at 10 mg/kg is 37%.

For `O=C(O)CCNCCCOc1ccc(Cc2ccccc2)cc1` [Example 431], the inhibition in vivo at 10 mg/kg was found to be 71%.

Take `O=C(O)CCNCCCCOc1ccc(Cc2ccccc2)cc1` [Example 433]: the inhibition in vivo at 10 mg/kg was determined as 71%.

As to `NC(=O)NC1CCN(CCOc2ccc(Cc3ccccc3)cc2)C1` (stereo not drawn) [Example 453], the inhibition in vivo at 10 mg/kg is 92%.

In the case of `C1=CC2CC1CN2CCOc1ccc(Cc2ccccc2)cc1` (stereo not drawn) [Example 497], the inhibition in vivo at 10 mg/kg came out at 45%.

Tested on in another data set: not given
Assay: not given
Settings: not given
`O=C(O)[C@@H]1CCCN1CCCOc1ccc(Cc2ccccc2)cc1` [Example 430] registered a melting point of 165 to 169 °C.

With `O=C(O)CCNCCCOc1ccc(Cc2ccccc2)cc1` [Example 431], the melting point was in the range of 165 to 167 °C.

`O=C(O)CCNCCCCOc1ccc(Cc2ccccc2)cc1` [Example 433] had a melting point of 140 to 141 °C.

Turning to `CN(CCCOc1ccc(Cc2ccccc2)cc1)CCC(=O)O` [Example 434], the melting point was 113 to 116 °C.

`NC(=O)NC1CCN(CCOc2ccc(Cc3ccccc3)cc2)C1` (stereo not drawn) [Example 453] came in with a melting point of 132 to 134 °C.

As to `C1=CC2CC1CN2CCOc1ccc(Cc2ccccc2)cc1` (stereo not drawn) [Example 497], the melting point fell in the range of 37 to 38 °C.

The target in a further data set is T2, LTA4 hydrolase (Homo sapiens, UniProt P09960).
T2 sequence (P09960 1-611): T1 sequence (P09960 1-611)
Assay: not given
Conditions: background statement; cited from earlier work.
As for `CC(C)C[C@H](NC(=O)[C@@H](O)[C@H](N)Cc1ccccc1)C(=O)O` [bestatin], the “LTA4 hydrolase inhibitory activity” value is “exhibit LTA4 hydrolase inhibitory activity”.

In the case of `C[C@H](CS)C(=O)N1CCC[C@H]1C(=O)O` [captopril], the “LTA4 hydrolase inhibitory activity” value is “exhibit LTA4 hydrolase inhibitory activity”.
